Experimental data: patent publication US20180084779A1, “PLANT DISEASE CONTROL AGENT AND USE THEREOF” (NIHON NOHYAKU CO., LTD., priority 2015, published 2018)

Test system: Septoria tritici, KUK-1-21 Strain
Assay: Test for wheat leaf blotch, fluoroimide and/or DMI agent sprayed on wheat pots, lesion area index 17 days after inoculation
Type: in vivo
Settings: DMI agent 1 ppm + fluoroimide 50 ppm
Description: Test for Wheat Leaf Blotch (Septoria tritici, KUK-1-21 Strain):
Agrochemical liquids containing a predetermined concentration of fluoroimide and/or a predetermined concentration of each DMI agent were applied to wheat in a predetermined amount with a spray gun. After air drying, a suspension of fungus spore of Septoria tritici adjusted to 1.0×10^7 spores/ml was inoculated by spraying. After that, the wheat pots were kept in a growth chamber under a light condition of at 15° C. 100% RH to encourage the development of the disease. Seventeen days after the inoculation, the lesion area index (0-10) was determined for the evaluation of the control effect.
Control effect (%)=[(Disease index of no treatment area−Disease index of treatment area)/Disease index of no treatment area]×100 [Formula 1]
The expected effect (expected value E) by using an active ingredient in combination with each of other active ingredients in the above tests was determined by the following Colby formula (see COLBY, S. R., Weeds 15: 20-22 (1967)).
E(Expected effect)=(X+Y)−(X×Y/100) [Formula 2]
X=controlling effect of fungicide A alone
Y=controlling effect of fungicide B alone

Row | Compound | Controlling effect Expected value (Colby) [%]
1 | Fc1ccc([C@]2(Cn3cncn3)O[C@H]2c2ccccc2Cl)cc1 (racemic) [epoxiconazole] | 25
2 | CC(C)(C)C(O)(CCc1ccc(Cl)cc1)Cn1cncn1 (stereo not drawn) [tebuconazole] | 30
3 | CCCC1COC(Cn2cncn2)(c2ccc(Cl)cc2Cl)O1 (stereo not drawn) [propiconazole] | 25
4 | CC1COC(Cn2cncn2)(c2ccc(Oc3ccc(Cl)cc3)cc2Cl)O1 (stereo not drawn) [difenoconazole] | 25
5 | OC(Cc1ccccc1Cl)(Cn1nc[nH]c1=S)C1(Cl)CC1 (stereo not drawn) [prothioconazole] | 25
6 | CCCN(CCOc1c(Cl)cc(Cl)cc1Cl)C(=O)n1ccnc1 [prochloraz] | 25

Same assay, conditions: DMI agent 1 ppm + fluoroimide 50 ppm; 17 days

Row | Compound | Controlling effect Combination with fluoroimide [%]
7 | Fc1ccc([C@]2(Cn3cncn3)O[C@H]2c2ccccc2Cl)cc1 (racemic) [epoxiconazole] | 19
8 | CC(C)(C)C(O)(CCc1ccc(Cl)cc1)Cn1cncn1 (stereo not drawn) [tebuconazole] | 62
9 | CCCC1COC(Cn2cncn2)(c2ccc(Cl)cc2Cl)O1 (stereo not drawn) [propiconazole] | 62
10 | CC1COC(Cn2cncn2)(c2ccc(Oc3ccc(Cl)cc3)cc2Cl)O1 (stereo not drawn) [difenoconazole] | 52
11 | OC(Cc1ccccc1Cl)(Cn1nc[nH]c1=S)C1(Cl)CC1 (stereo not drawn) [prothioconazole] | 3
12 | CCCN(CCOc1c(Cl)cc(Cl)cc1Cl)C(=O)n1ccnc1 [prochloraz] | 57

Same assay, conditions: DMI agent 1 ppm + fluoroimide 100 ppm

Row | Compound | Controlling effect Expected value (Colby) [%]
13 | Fc1ccc([C@]2(Cn3cncn3)O[C@H]2c2ccccc2Cl)cc1 (racemic) [epoxiconazole] | 50
14 | CC(C)(C)C(O)(CCc1ccc(Cl)cc1)Cn1cncn1 (stereo not drawn) [tebuconazole] | 53
15 | CCCC1COC(Cn2cncn2)(c2ccc(Cl)cc2Cl)O1 (stereo not drawn) [propiconazole] | 50
16 | CC1COC(Cn2cncn2)(c2ccc(Oc3ccc(Cl)cc3)cc2Cl)O1 (stereo not drawn) [difenoconazole] | 50
17 | OC(Cc1ccccc1Cl)(Cn1nc[nH]c1=S)C1(Cl)CC1 (stereo not drawn) [prothioconazole] | 50
18 | CCCN(CCOc1c(Cl)cc(Cl)cc1Cl)C(=O)n1ccnc1 [prochloraz] | 50

Same assay, conditions: DMI agent 1 ppm + fluoroimide 100 ppm; 17 days

Row | Compound | Controlling effect Combination with fluoroimide [%]
19 | Fc1ccc([C@]2(Cn3cncn3)O[C@H]2c2ccccc2Cl)cc1 (racemic) [epoxiconazole] | 72
20 | CC(C)(C)C(O)(CCc1ccc(Cl)cc1)Cn1cncn1 (stereo not drawn) [tebuconazole] | 67
21 | CCCC1COC(Cn2cncn2)(c2ccc(Cl)cc2Cl)O1 (stereo not drawn) [propiconazole] | 72
22 | CC1COC(Cn2cncn2)(c2ccc(Oc3ccc(Cl)cc3)cc2Cl)O1 (stereo not drawn) [difenoconazole] | 94
23 | OC(Cc1ccccc1Cl)(Cn1nc[nH]c1=S)C1(Cl)CC1 (stereo not drawn) [prothioconazole] | 61
24 | CCCN(CCOc1c(Cl)cc(Cl)cc1Cl)C(=O)n1ccnc1 [prochloraz] | 72

Same assay, conditions: DMI agent 1 ppm, fluoroimide 0 ppm; 17 days

Row | Compound | Controlling effect DMI alone [%]
25 | Fc1ccc([C@]2(Cn3cncn3)O[C@H]2c2ccccc2Cl)cc1 (racemic) [epoxiconazole] | 0
26 | CC(C)(C)C(O)(CCc1ccc(Cl)cc1)Cn1cncn1 (stereo not drawn) [tebuconazole] | 6
27 | CCCC1COC(Cn2cncn2)(c2ccc(Cl)cc2Cl)O1 (stereo not drawn) [propiconazole] | 0
28 | CC1COC(Cn2cncn2)(c2ccc(Oc3ccc(Cl)cc3)cc2Cl)O1 (stereo not drawn) [difenoconazole] | 0
29 | OC(Cc1ccccc1Cl)(Cn1nc[nH]c1=S)C1(Cl)CC1 (stereo not drawn) [prothioconazole] | 0
30 | CCCN(CCOc1c(Cl)cc(Cl)cc1Cl)C(=O)n1ccnc1 [prochloraz] | 0

Same assay, conditions: DMI agent 3 ppm + fluoroimide 50 ppm

Row | Compound | Controlling effect Expected value (Colby) [%]
31 | Fc1ccc([C@]2(Cn3cncn3)O[C@H]2c2ccccc2Cl)cc1 (racemic) [epoxiconazole] | 63
32 | CC(C)(C)C(O)(CCc1ccc(Cl)cc1)Cn1cncn1 (stereo not drawn) [tebuconazole] | 58
33 | CCCC1COC(Cn2cncn2)(c2ccc(Cl)cc2Cl)O1 (stereo not drawn) [propiconazole] | 46
34 | CC1COC(Cn2cncn2)(c2ccc(Oc3ccc(Cl)cc3)cc2Cl)O1 (stereo not drawn) [difenoconazole] | 71
35 | OC(Cc1ccccc1Cl)(Cn1nc[nH]c1=S)C1(Cl)CC1 (stereo not drawn) [prothioconazole] | 25
36 | CCCN(CCOc1c(Cl)cc(Cl)cc1Cl)C(=O)n1ccnc1 [prochloraz] | 33

Same assay, conditions: DMI agent 3 ppm + fluoroimide 50 ppm; 17 days

Row | Compound | Controlling effect Combination with fluoroimide [%]
37 | Fc1ccc([C@]2(Cn3cncn3)O[C@H]2c2ccccc2Cl)cc1 (racemic) [epoxiconazole] | 62
38 | CC(C)(C)C(O)(CCc1ccc(Cl)cc1)Cn1cncn1 (stereo not drawn) [tebuconazole] | 68
39 | CCCC1COC(Cn2cncn2)(c2ccc(Cl)cc2Cl)O1 (stereo not drawn) [propiconazole] | 89
40 | CC1COC(Cn2cncn2)(c2ccc(Oc3ccc(Cl)cc3)cc2Cl)O1 (stereo not drawn) [difenoconazole] | 89
41 | OC(Cc1ccccc1Cl)(Cn1nc[nH]c1=S)C1(Cl)CC1 (stereo not drawn) [prothioconazole] | 30
42 | CCCN(CCOc1c(Cl)cc(Cl)cc1Cl)C(=O)n1ccnc1 [prochloraz] | 41

Same assay, conditions: DMI agent 3 ppm + fluoroimide 100 ppm

Row | Compound | Controlling effect Expected value (Colby) [%]
43 | Fc1ccc([C@]2(Cn3cncn3)O[C@H]2c2ccccc2Cl)cc1 (racemic) [epoxiconazole] | 75
44 | CC(C)(C)C(O)(CCc1ccc(Cl)cc1)Cn1cncn1 (stereo not drawn) [tebuconazole] | 72
45 | CCCC1COC(Cn2cncn2)(c2ccc(Cl)cc2Cl)O1 (stereo not drawn) [propiconazole] | 64
46 | CC1COC(Cn2cncn2)(c2ccc(Oc3ccc(Cl)cc3)cc2Cl)O1 (stereo not drawn) [difenoconazole] | 81
47 | OC(Cc1ccccc1Cl)(Cn1nc[nH]c1=S)C1(Cl)CC1 (stereo not drawn) [prothioconazole] | 50
48 | CCCN(CCOc1c(Cl)cc(Cl)cc1Cl)C(=O)n1ccnc1 [prochloraz] | 56

Same assay, conditions: DMI agent 3 ppm + fluoroimide 100 ppm; 17 days

Row | Compound | Controlling effect Combination with fluoroimide [%]
49 | Fc1ccc([C@]2(Cn3cncn3)O[C@H]2c2ccccc2Cl)cc1 (racemic) [epoxiconazole] | 83
50 | CC(C)(C)C(O)(CCc1ccc(Cl)cc1)Cn1cncn1 (stereo not drawn) [tebuconazole] | 94
51 | CCCC1COC(Cn2cncn2)(c2ccc(Cl)cc2Cl)O1 (stereo not drawn) [propiconazole] | 94
52 | CC1COC(Cn2cncn2)(c2ccc(Oc3ccc(Cl)cc3)cc2Cl)O1 (stereo not drawn) [difenoconazole] | 89
53 | OC(Cc1ccccc1Cl)(Cn1nc[nH]c1=S)C1(Cl)CC1 (stereo not drawn) [prothioconazole] | 72
54 | CCCN(CCOc1c(Cl)cc(Cl)cc1Cl)C(=O)n1ccnc1 [prochloraz] | 72

Same assay, conditions: DMI agent 3 ppm, fluoroimide 0 ppm; 17 days

Row | Compound | Controlling effect DMI alone [%]
55 | Fc1ccc([C@]2(Cn3cncn3)O[C@H]2c2ccccc2Cl)cc1 (racemic) [epoxiconazole] | 50
56 | CC(C)(C)C(O)(CCc1ccc(Cl)cc1)Cn1cncn1 (stereo not drawn) [tebuconazole] | 44
57 | CCCC1COC(Cn2cncn2)(c2ccc(Cl)cc2Cl)O1 (stereo not drawn) [propiconazole] | 28
58 | CC1COC(Cn2cncn2)(c2ccc(Oc3ccc(Cl)cc3)cc2Cl)O1 (stereo not drawn) [difenoconazole] | 61
59 | OC(Cc1ccccc1Cl)(Cn1nc[nH]c1=S)C1(Cl)CC1 (stereo not drawn) [prothioconazole] | 0
60 | CCCN(CCOc1c(Cl)cc(Cl)cc1Cl)C(=O)n1ccnc1 [prochloraz] | 11

Same assay, conditions: DMI agent 10 ppm + fluoroimide 50 ppm

Row | Compound | Controlling effect Expected value (Colby) [%]
61 | Fc1ccc([C@]2(Cn3cncn3)O[C@H]2c2ccccc2Cl)cc1 (racemic) [epoxiconazole] | 71
62 | CC(C)(C)C(O)(CCc1ccc(Cl)cc1)Cn1cncn1 (stereo not drawn) [tebuconazole] | 71
63 | CCCC1COC(Cn2cncn2)(c2ccc(Cl)cc2Cl)O1 (stereo not drawn) [propiconazole] | 33
64 | CC1COC(Cn2cncn2)(c2ccc(Oc3ccc(Cl)cc3)cc2Cl)O1 (stereo not drawn) [difenoconazole] | 71
65 | OC(Cc1ccccc1Cl)(Cn1nc[nH]c1=S)C1(Cl)CC1 (stereo not drawn) [prothioconazole] | 25
66 | CCCN(CCOc1c(Cl)cc(Cl)cc1Cl)C(=O)n1ccnc1 [prochloraz] | 30

Same assay, conditions: DMI agent 10 ppm + fluoroimide 50 ppm; 17 days

Row | Compound | Controlling effect Combination with fluoroimide [%]
67 | Fc1ccc([C@]2(Cn3cncn3)O[C@H]2c2ccccc2Cl)cc1 (racemic) [epoxiconazole] | 84
68 | CC(C)(C)C(O)(CCc1ccc(Cl)cc1)Cn1cncn1 (stereo not drawn) [tebuconazole] | 89
69 | CCCC1COC(Cn2cncn2)(c2ccc(Cl)cc2Cl)O1 (stereo not drawn) [propiconazole] | 89
70 | CC1COC(Cn2cncn2)(c2ccc(Oc3ccc(Cl)cc3)cc2Cl)O1 (stereo not drawn) [difenoconazole] | 89
71 | OC(Cc1ccccc1Cl)(Cn1nc[nH]c1=S)C1(Cl)CC1 (stereo not drawn) [prothioconazole] | 73
72 | CCCN(CCOc1c(Cl)cc(Cl)cc1Cl)C(=O)n1ccnc1 [prochloraz] | 62

Same assay, conditions: DMI agent 10 ppm + fluoroimide 100 ppm

Row | Compound | Controlling effect Expected value (Colby) [%]
73 | Fc1ccc([C@]2(Cn3cncn3)O[C@H]2c2ccccc2Cl)cc1 (racemic) [epoxiconazole] | 81
74 | CC(C)(C)C(O)(CCc1ccc(Cl)cc1)Cn1cncn1 (stereo not drawn) [tebuconazole] | 81
75 | CCCC1COC(Cn2cncn2)(c2ccc(Cl)cc2Cl)O1 (stereo not drawn) [propiconazole] | 56
76 | CC1COC(Cn2cncn2)(c2ccc(Oc3ccc(Cl)cc3)cc2Cl)O1 (stereo not drawn) [difenoconazole] | 81
77 | OC(Cc1ccccc1Cl)(Cn1nc[nH]c1=S)C1(Cl)CC1 (stereo not drawn) [prothioconazole] | 50
78 | CCCN(CCOc1c(Cl)cc(Cl)cc1Cl)C(=O)n1ccnc1 [prochloraz] | 53

Same assay, conditions: DMI agent 10 ppm + fluoroimide 100 ppm; 17 days

Row | Compound | Controlling effect Combination with fluoroimide [%]
79 | Fc1ccc([C@]2(Cn3cncn3)O[C@H]2c2ccccc2Cl)cc1 (racemic) [epoxiconazole] | 83
80 | CC(C)(C)C(O)(CCc1ccc(Cl)cc1)Cn1cncn1 (stereo not drawn) [tebuconazole] | 94
81 | CCCC1COC(Cn2cncn2)(c2ccc(Cl)cc2Cl)O1 (stereo not drawn) [propiconazole] | 100
82 | CC1COC(Cn2cncn2)(c2ccc(Oc3ccc(Cl)cc3)cc2Cl)O1 (stereo not drawn) [difenoconazole] | 100
83 | OC(Cc1ccccc1Cl)(Cn1nc[nH]c1=S)C1(Cl)CC1 (stereo not drawn) [prothioconazole] | 67
84 | CCCN(CCOc1c(Cl)cc(Cl)cc1Cl)C(=O)n1ccnc1 [prochloraz] | 67

Same assay, conditions: DMI agent 10 ppm, fluoroimide 0 ppm; 17 days

Row | Compound | Controlling effect DMI alone [%]
85 | Fc1ccc([C@]2(Cn3cncn3)O[C@H]2c2ccccc2Cl)cc1 (racemic) [epoxiconazole] | 61
86 | CC(C)(C)C(O)(CCc1ccc(Cl)cc1)Cn1cncn1 (stereo not drawn) [tebuconazole] | 61
87 | CCCC1COC(Cn2cncn2)(c2ccc(Cl)cc2Cl)O1 (stereo not drawn) [propiconazole] | 11
88 | CC1COC(Cn2cncn2)(c2ccc(Oc3ccc(Cl)cc3)cc2Cl)O1 (stereo not drawn) [difenoconazole] | 61
89 | OC(Cc1ccccc1Cl)(Cn1nc[nH]c1=S)C1(Cl)CC1 (stereo not drawn) [prothioconazole] | 0
90 | CCCN(CCOc1c(Cl)cc(Cl)cc1Cl)C(=O)n1ccnc1 [prochloraz] | 6
